Assay results published in PMC6775094, “A robust bacterial assay for high-throughput screening of human 4-hydroxyphenylpyruvate dioxygenase inhibitors” (Scientific Reports, 2019).

Target: T1, 4-hydroxyphenylpyruvate dioxygenase (HPD) (Homo sapiens, UniProt P32754)
T1 construct: wild type human HPD (NM_002150.2), pET42b(+), expressed in E. coli C43 (DE3)
Experiment: cell-based

T1 sequence (P32754 2-393): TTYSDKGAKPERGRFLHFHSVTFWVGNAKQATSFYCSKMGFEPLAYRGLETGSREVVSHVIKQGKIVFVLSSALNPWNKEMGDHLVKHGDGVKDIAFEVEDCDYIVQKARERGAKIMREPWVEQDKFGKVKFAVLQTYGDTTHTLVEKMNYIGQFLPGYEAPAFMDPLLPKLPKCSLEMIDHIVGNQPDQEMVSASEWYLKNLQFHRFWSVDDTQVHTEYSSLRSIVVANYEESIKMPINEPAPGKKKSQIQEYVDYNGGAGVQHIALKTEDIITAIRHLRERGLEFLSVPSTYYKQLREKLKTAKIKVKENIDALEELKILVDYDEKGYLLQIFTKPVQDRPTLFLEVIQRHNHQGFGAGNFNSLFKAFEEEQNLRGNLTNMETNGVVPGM

| SMILES | IC50 [nM] |
| --- | --- |
| CS(=O)(=O)c1ccc(C(=O)C2C(=O)CCCC2=O)c([N+](=O)[O-])c1 [mesotrione] | 396 ± 48 |
| CS(=O)(=O)c1ccc(C(=O)C2C(=O)CCCC2=O)c(Cl)c1 [sulcotrione] | 187 ± 37 |
| CS(=O)(=O)c1ccc(C(=O)C2C(=O)CCCC2=O)c(Cl)c1COCC(F)(F)F [tembotrione] | 610 ± 15 |
